{
  "source": "patent US20240246942A1",
  "about": "“KINASE INHIBITORS FOR THE TREATMENT OF NEURODEGENERATIVE DISEASES” (priority 2020, published 2024)",
  "test_in_all_cases": "biochemical",
  "key": {"[1]": {"biological_target": "T1, panel of 374 wild-type kinases (Homo sapiens, UniProt Q06187)", "T1 construct": "purchased Reaction Biology Corporation", "T1 sequence (Q06187 whole entry)": "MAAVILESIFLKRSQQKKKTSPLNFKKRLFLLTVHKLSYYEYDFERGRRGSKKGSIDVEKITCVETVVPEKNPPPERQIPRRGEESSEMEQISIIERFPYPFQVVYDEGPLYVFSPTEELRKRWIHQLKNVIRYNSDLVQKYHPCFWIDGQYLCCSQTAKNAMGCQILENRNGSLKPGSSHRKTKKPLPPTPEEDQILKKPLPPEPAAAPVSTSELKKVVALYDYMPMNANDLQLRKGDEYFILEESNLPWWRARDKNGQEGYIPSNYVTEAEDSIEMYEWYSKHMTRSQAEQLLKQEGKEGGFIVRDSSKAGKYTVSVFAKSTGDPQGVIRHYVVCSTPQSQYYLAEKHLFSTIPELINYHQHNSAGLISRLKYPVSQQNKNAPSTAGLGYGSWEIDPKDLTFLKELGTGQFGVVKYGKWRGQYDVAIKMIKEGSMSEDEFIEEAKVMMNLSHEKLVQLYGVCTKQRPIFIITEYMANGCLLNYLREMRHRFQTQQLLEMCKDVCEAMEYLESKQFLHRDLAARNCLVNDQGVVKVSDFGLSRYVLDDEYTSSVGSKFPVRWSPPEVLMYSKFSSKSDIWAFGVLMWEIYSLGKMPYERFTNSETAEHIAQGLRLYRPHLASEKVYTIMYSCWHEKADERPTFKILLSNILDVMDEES", "conditions": "read-out: % Enzyme Activity (relative to DMSO controls), BTK"}, "[2]": {"biological_target": "T2, panel of 374 wild-type kinases (Homo sapiens, UniProt Q15831)", "T2 construct": "purchased Reaction Biology Corporation", "T2 sequence (Q15831 1-433)": "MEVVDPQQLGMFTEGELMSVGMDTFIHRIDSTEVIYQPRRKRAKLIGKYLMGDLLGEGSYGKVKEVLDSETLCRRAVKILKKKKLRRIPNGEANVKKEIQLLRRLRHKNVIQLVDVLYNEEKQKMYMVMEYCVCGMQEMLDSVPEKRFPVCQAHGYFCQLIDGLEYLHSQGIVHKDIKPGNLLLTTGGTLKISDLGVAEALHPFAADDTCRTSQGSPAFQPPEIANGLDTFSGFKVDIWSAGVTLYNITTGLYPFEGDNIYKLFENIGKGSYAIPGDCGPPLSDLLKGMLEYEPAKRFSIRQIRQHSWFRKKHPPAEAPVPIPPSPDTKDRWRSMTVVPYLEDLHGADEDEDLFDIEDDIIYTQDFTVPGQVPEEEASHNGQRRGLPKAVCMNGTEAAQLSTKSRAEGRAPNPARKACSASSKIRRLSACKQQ", "conditions": "read-out: % Enzyme Activity (relative to DMSO controls), LKB1"}, "[3]": {"biological_target": "T3, panel of 374 wild-type kinases (Homo sapiens, UniProt P46734)", "T3 construct": "purchased Reaction Biology Corporation", "T3 sequence (P46734 1-347)": "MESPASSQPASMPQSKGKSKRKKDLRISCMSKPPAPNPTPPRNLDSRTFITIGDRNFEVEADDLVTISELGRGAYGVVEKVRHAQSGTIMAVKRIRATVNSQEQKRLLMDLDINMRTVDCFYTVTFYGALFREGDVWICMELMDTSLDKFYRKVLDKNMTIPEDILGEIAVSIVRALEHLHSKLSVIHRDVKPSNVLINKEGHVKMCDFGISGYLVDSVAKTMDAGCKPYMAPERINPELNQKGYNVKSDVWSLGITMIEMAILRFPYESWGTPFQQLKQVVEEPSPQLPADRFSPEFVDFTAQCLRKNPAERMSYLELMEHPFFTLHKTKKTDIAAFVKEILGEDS", "conditions": "read-out: % Enzyme Activity (relative to DMSO controls), MEK3"}, "[4]": {"biological_target": "T4, panel of 374 wild-type kinases (Homo sapiens, UniProt Q9UQM7)", "T4 construct": "purchased Reaction Biology Corporation", "T4 sequence (Q9UQM7 whole entry)": "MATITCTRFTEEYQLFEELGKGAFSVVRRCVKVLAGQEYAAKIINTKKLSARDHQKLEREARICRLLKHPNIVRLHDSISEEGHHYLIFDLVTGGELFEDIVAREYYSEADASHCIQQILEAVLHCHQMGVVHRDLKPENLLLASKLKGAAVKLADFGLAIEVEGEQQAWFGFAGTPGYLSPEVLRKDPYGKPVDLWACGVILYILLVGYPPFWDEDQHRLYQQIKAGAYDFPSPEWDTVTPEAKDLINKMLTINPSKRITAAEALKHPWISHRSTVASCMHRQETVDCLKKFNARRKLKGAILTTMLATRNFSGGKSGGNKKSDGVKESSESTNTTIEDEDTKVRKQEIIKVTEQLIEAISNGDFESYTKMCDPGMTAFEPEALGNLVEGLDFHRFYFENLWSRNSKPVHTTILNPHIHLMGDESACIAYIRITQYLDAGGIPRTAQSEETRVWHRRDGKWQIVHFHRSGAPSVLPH", "conditions": "read-out: % Enzyme Activity (relative to DMSO controls), CAMK2a"}, "[5]": {"biological_target": "T5, panel of 374 wild-type kinases (Homo sapiens, UniProt Q9HAZ1)", "T5 construct": "purchased Reaction Biology Corporation", "T5 sequence (Q9HAZ1 whole entry)": "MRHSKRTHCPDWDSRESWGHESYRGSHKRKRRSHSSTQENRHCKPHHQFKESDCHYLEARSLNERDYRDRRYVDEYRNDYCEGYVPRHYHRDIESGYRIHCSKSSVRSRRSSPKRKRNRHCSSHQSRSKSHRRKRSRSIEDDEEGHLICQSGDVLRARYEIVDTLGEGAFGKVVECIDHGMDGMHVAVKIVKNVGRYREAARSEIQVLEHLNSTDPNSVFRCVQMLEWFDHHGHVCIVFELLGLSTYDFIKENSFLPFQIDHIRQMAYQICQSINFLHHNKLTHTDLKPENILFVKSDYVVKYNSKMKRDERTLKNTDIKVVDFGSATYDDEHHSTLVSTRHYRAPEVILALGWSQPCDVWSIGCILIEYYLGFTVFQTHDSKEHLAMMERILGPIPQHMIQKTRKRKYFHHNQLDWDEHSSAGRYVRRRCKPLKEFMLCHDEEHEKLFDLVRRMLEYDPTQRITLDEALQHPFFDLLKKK", "conditions": "read-out: % Enzyme Activity (relative to DMSO controls), CLK4"}, "[6]": {"biological_target": "T6, panel of 374 wild-type kinases (Homo sapiens, UniProt Q9BYP7)", "T6 construct": "purchased Reaction Biology Corporation", "T6 sequence (Q9BYP7 whole entry)": "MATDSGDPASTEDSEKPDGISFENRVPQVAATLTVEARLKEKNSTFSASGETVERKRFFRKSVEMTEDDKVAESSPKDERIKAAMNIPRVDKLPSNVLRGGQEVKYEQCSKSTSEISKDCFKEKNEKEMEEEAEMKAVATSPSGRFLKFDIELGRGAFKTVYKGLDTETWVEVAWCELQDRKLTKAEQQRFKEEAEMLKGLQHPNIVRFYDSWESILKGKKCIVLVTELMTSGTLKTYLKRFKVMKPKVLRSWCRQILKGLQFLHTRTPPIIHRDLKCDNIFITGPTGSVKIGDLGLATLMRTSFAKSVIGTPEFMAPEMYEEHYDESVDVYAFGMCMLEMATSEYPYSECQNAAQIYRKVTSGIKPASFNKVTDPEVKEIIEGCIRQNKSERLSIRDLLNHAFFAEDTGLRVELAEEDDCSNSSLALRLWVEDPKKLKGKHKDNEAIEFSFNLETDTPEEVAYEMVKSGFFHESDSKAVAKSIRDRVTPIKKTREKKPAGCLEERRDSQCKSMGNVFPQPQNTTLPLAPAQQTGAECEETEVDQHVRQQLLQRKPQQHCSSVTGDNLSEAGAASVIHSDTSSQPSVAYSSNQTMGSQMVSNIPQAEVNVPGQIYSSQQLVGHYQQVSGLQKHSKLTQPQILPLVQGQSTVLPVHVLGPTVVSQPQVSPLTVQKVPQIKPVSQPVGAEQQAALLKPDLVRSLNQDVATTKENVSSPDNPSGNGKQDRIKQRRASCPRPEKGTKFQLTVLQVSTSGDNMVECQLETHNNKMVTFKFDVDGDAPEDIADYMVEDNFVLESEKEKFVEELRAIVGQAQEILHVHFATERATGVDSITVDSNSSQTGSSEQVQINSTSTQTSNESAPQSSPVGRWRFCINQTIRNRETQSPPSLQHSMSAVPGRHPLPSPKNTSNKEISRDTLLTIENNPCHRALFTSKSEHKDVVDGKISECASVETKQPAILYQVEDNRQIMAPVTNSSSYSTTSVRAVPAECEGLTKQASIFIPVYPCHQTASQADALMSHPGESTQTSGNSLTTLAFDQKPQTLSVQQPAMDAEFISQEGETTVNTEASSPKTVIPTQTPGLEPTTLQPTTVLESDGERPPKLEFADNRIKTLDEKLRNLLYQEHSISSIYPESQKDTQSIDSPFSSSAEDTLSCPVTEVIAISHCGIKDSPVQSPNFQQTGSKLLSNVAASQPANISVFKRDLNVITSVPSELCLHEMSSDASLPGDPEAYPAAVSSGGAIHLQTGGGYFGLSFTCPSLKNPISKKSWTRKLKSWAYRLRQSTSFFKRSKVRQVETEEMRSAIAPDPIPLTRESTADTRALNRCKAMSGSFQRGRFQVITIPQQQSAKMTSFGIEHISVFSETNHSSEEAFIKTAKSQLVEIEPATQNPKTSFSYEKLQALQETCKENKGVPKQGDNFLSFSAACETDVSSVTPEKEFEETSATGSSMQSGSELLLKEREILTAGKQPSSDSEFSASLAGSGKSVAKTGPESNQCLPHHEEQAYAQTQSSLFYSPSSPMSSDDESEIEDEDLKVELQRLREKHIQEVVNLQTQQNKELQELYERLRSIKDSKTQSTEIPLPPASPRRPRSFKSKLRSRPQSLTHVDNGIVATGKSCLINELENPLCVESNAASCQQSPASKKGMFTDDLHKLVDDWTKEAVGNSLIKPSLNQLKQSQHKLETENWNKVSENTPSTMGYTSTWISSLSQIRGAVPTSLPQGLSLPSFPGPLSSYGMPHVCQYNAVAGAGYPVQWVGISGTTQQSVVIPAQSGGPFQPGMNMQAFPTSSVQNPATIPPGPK", "conditions": "read-out: % Enzyme Activity (relative to DMSO controls), kinase WNK3"}, "[7]": {"biological_target": "T7, panel of 374 wild-type kinases (Homo sapiens, UniProt Q9UHD2)", "T7 construct": "purchased Reaction Biology Corporation", "T7 sequence (Q9UHD2 1-729)": "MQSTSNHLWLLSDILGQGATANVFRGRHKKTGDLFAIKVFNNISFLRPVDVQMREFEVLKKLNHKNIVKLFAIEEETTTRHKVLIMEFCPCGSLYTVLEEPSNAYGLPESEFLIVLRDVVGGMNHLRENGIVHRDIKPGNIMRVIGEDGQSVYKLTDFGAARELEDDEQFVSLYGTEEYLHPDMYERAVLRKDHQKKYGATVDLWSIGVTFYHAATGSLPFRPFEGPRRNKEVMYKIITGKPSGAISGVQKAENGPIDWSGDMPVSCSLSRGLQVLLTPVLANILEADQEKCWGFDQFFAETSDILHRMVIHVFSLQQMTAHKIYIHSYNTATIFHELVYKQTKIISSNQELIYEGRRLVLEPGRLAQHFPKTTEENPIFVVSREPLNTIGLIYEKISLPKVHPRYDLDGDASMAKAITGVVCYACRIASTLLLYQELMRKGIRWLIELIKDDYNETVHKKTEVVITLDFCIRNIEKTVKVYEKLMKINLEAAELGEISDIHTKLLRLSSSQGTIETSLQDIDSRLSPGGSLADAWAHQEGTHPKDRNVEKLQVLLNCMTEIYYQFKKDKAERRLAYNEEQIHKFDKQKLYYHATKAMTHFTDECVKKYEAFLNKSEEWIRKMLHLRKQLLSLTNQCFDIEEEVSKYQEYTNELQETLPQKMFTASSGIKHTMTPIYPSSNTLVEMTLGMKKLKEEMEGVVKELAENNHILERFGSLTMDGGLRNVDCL", "conditions": "read-out: % Enzyme Activity (relative to DMSO controls), kinase TBK1"}, "[8]": {"biological_target": "T8, panel of 374 wild-type kinases (Homo sapiens, UniProt Q8TDX7)", "T8 construct": "purchased Reaction Biology Corporation", "T8 sequence (Q8TDX7 whole entry)": "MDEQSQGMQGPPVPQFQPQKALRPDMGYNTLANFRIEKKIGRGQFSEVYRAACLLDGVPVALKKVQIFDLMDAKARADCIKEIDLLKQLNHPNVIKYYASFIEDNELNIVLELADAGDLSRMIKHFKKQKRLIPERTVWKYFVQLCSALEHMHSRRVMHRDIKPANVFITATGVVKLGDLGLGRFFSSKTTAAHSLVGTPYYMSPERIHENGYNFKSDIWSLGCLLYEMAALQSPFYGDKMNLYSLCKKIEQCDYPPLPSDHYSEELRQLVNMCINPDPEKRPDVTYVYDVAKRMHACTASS", "conditions": "read-out: % Enzyme Activity (relative to DMSO controls), NEK7"}},
  "data": [
    {"compound": "O=C(Nc1cnn(-c2csc(C(=O)NC3COC3)c2)c1)Nc1ccccc1Cl", "note": "[Compound 17, 4-(4-(3-(2-chlorophenyl)ureido)-1H-pyrazol-1-yl)-N-(oxetan-3-yl)thiophene-2-carboxamide]", "values": [
      {"measurement": "remaining activity at 5 µM", "setting": "[1]", "result": 92.6, "unit": "%"},
      {"measurement": "remaining activity at 5 µM", "setting": "[2]", "result": 118, "unit": "%"},
      {"measurement": "remaining activity at 5 µM", "setting": "[3]", "result": 104, "unit": "%"},
      {"measurement": "remaining activity at 5 µM", "setting": "[4]", "result": 100, "unit": "%"},
      {"measurement": "remaining activity at 5 µM", "setting": "[5]", "result": 66, "unit": "%"},
      {"measurement": "remaining activity at 5 µM", "setting": "[6]", "result": 99.5, "unit": "%"},
      {"measurement": "remaining activity at 5 µM", "setting": "[7]", "result": 102, "unit": "%"},
      {"measurement": "remaining activity at 5 µM", "setting": "[8]", "result": 102, "unit": "%"}
    ]},
    {"compound": "Cc1sc(C(=O)NC2COC2)cc1-n1cc(NC(=O)Nc2c(F)cccc2Cl)cn1", "note": "[Compound 27, 4-(4-(3-(2-chloro-6-fluorophenyl)ureido)-1H-pyrazol-1-yl)-5-methyl-N-(oxetan-3-yl)thiophene-2-carboxamide]", "values": [
      {"measurement": "remaining activity at 10 µM", "setting": "[1]; 10 uM", "result": 87.6, "unit": "%"},
      {"measurement": "remaining activity at 10 µM", "setting": "[2]; 10 uM", "result": 97.6, "unit": "%"},
      {"measurement": "remaining activity at 10 µM", "setting": "[3]; 10 uM", "result": 88.8, "unit": "%"},
      {"measurement": "remaining activity at 10 µM", "setting": "[4]; 10 uM", "result": 99.7, "unit": "%"},
      {"measurement": "remaining activity at 10 µM", "setting": "[5]; 10 uM", "result": 102, "unit": "%"},
      {"measurement": "remaining activity at 10 µM", "setting": "[6]; 10 uM", "result": 102, "unit": "%"},
      {"measurement": "remaining activity at 10 µM", "setting": "[7]; 10 uM", "result": 97.8, "unit": "%"},
      {"measurement": "remaining activity at 10 µM", "setting": "[8]; 10 uM", "result": 100, "unit": "%"}
    ]},
    {"compound": "O=C(Nc1cnn(-c2csc(C(=O)NC3COC3)c2)c1)Nc1c(F)cccc1Cl", "note": "[Compound 25, 4-(4-(3-(2-chloro-6-fluorophenyl)ureido)-1H-pyrazol-1-yl)-N-(oxetan-3-yl)thiophene-2-carboxamide]", "values": [
      {"measurement": "remaining activity at 5 µM", "setting": "[1]", "result": 89.3, "unit": "%"},
      {"measurement": "remaining activity at 5 µM", "setting": "[2]", "result": 94.7, "unit": "%"},
      {"measurement": "remaining activity at 5 µM", "setting": "[3]", "result": 111, "unit": "%"},
      {"measurement": "remaining activity at 5 µM", "setting": "[4]", "result": 99.4, "unit": "%"},
      {"measurement": "remaining activity at 5 µM", "setting": "[5]", "result": 93.2, "unit": "%"},
      {"measurement": "remaining activity at 5 µM", "setting": "[6]", "result": 91.8, "unit": "%"},
      {"measurement": "remaining activity at 5 µM", "setting": "[7]", "result": 98.8, "unit": "%"},
      {"measurement": "remaining activity at 5 µM", "setting": "[8]", "result": 88.1, "unit": "%"}
    ]}
  ]
}
